We go through eleven compounds from ChEMBL document CHEMBL1201862, “PubChem BioAssay data set” (2004).

Some test systems named below: 786-0; ACHN; CCRF-CEM; COLO 205; DU-145; HCT-116; HL-60; KM12; Malme-3M; NCI-H460; OVCAR-3; RPMI-8226; SF-539; SK-MEL-5; SK-OV-3; SNB-19; TK-10; UO-31; K562; HOP-92.
Assay in all cases: NCI tumour cell line growth inhibition, 48 h

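Results reflect a 48-hour exposure of cells in 96-well plates to compound at five concentrations. At the GI50, growth is halved.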 Calls of active or inactive are those of the source. Cut-off read from the data, not from the text of the source: active = GI50 up to about 1.1 µM and inactive = higher. Square brackets hold non-standard residues; d marks the D form. Peptide text beside a SMILES is read from it. ξ: configuration not given here. ξ2Thi = NC(Cc1cccs1)C(=O)O; ξR = N=C(N)NCCCC(N)C(=O)O; ξI = CCC(C)C(N)C(=O)O; ξL = CC(C)CC(N)C(=O)O; ξK = NCCCCC(N)C(=O)O; ξT = CC(O)C(N)C(=O)O; ξA = CC(N)C(=O)O A value given as a limit tells only on which side of the number the result lay.

Regarding `COc1ccc(-n2sc3ncc([N+](=O)[O-])cc3c2=O)cc1`, the GI50 was > 100 µM (inactive) with 786-0; > 100 µM (inactive) in the experiment on ACHN; 96.4 µM (inactive) in the experiment on CCRF-CEM; > 100 µM (inactive) in the experiment with COLO 205; > 100 µM (inactive) with DU-145; > 100 µM (inactive) in the experiment on HCT-116. Also, the GI50 with HL-60, with KM12, in the experiment on Malme-3M, with NCI-H460, in the experiment with OVCAR-3 and in the experiment with RPMI-8226 was > 100 µM (inactive) in each case. In addition, the GI50 in the experiment on SF-539, with SK-MEL-5, in the experiment on SK-OV-3, in the experiment with SNB-19, in the experiment with TK-10 and with UO-31 was > 100 µM (inactive) each time.

Regarding `CCOC(=O)c1nnsc1NC(=O)NN`, the GI50 is 89.3 µM (inactive) in the experiment on 786-0; > 100 µM (inactive) with ACHN; > 100 µM (inactive) in the experiment with CCRF-CEM; > 100 µM (inactive) in the experiment on COLO 205; > 100 µM (inactive) in the experiment with DU-145; > 100 µM (inactive) in the experiment with HCT-116. Moreover, the GI50 with HL-60 was > 100 µM (inactive); in the experiment on K562, 41.1 µM (inactive); in the experiment on KM12, > 100 µM (inactive); in the experiment on Malme-3M it was > 100 µM (inactive); in the experiment on NCI-H460 it was > 100 µM (inactive); with OVCAR-3, > 100 µM (inactive). Besides, the GI50 in the experiment with RPMI-8226, in the experiment on SF-539, in the experiment with SK-MEL-5, in the experiment with SK-OV-3, in the experiment on SNB-19 and in the experiment on TK-10 was > 100 µM (inactive) each time. Further, the GI50 in the experiment on UO-31 is > 100 µM (inactive).

On to `CCOC(=O)c1ccc(Nc2nc3cc(C(F)(F)F)ccc3nc2-c2ccccc2)cc1`, for which the GI50 is 18.7 µM (inactive) in the experiment with 786-0; 17.7 µM (inactive) in the experiment on ACHN; 43.3 µM (inactive) in the experiment on CCRF-CEM; 42.7 µM (inactive) with COLO 205; > 100 µM (inactive) in the experiment with DU-145; 67.6 µM (inactive) in the experiment on HCT-116. Further, the GI50 in the experiment with HL-60 is 50.2 µM (inactive); in the experiment on K562, > 100 µM (inactive); with KM12, 28.4 µM (inactive); with Malme-3M, > 100 µM (inactive); with NCI-H460, 45.7 µM (inactive); in the experiment with OVCAR-3 it was 53.6 µM (inactive). Further, the GI50 was > 100 µM (inactive) with RPMI-8226; 65.5 µM (inactive) with SF-539; 65 µM (inactive) with SK-MEL-5; 29.2 µM (inactive) with SNB-19; > 10 µM (inactive) in the experiment with TK-10; > 100 µM (inactive) in the experiment on UO-31.

With `CCOC(=O)CCC(NC(=O)c1ccc(NCc2ccc3nc(-c4ccccc4)c(Cl)nc3c2)c2ccccc12)C(=O)OCC` (stereo not given), the GI50 in the experiment on 786-0, in the experiment with ACHN, in the experiment with COLO 205, with DU-145, with HCT-116 and in the experiment with HOP-92 was > 100 µM (inactive) throughout. Besides, the GI50 in the experiment with K562 is 6.46 µM (inactive); in the experiment on KM12, > 100 µM (inactive); in the experiment on Malme-3M it was > 100 µM (inactive); with NCI-H460 it was > 100 µM (inactive); in the experiment with OVCAR-3 it was > 100 µM (inactive); in the experiment on SF-539 it was > 100 µM (inactive). Moreover, the GI50 is 9.14 µM (inactive) with SK-MEL-5; > 100 µM (inactive) with SK-OV-3; > 100 µM (inactive) in the experiment with SNB-19; > 100 µM (inactive) in the experiment on TK-10; > 100 µM (inactive) in the experiment on UO-31.

Turning to `CCOC(=O)C1=CNC(C(=O)OCC)C1c1cccn1-c1ccc(Cl)cc1[N+](=O)[O-]` (stereo not given), the GI50 in the experiment on 786-0 is 19.1 µM (inactive); in the experiment on ACHN it was 30.3 µM (inactive); in the experiment with CCRF-CEM, 24.5 µM (inactive); in the experiment with COLO 205, 31.2 µM (inactive); with DU-145 it was 29.5 µM (inactive); with HCT-116, 17.1 µM (inactive). The GI50 in the experiment on HOP-92 is 17.6 µM (inactive); in the experiment on K562, 23.8 µM (inactive); with KM12, 20.2 µM (inactive); in the experiment on NCI-H460, 15.4 µM (inactive); in the experiment with OVCAR-3, 10.6 µM (inactive); in the experiment with SF-539, 16.6 µM (inactive). Further, the GI50 in the experiment with SK-MEL-5 is 16.6 µM (inactive); in the experiment with SK-OV-3, 32.7 µM (inactive); in the experiment with TK-10, 13.1 µM (inactive); in the experiment on UO-31 it was 22.9 µM (inactive).

With `ClC(Cl)(Cl)C1CCOC1n1nc2ccccc2n1` (stereo not given), the GI50 in the experiment with 786-0 is > 100 µM (inactive); in the experiment with CCRF-CEM, > 100 µM (inactive); in the experiment on COLO 205, > 100 µM (inactive); in the experiment with DU-145, > 100 µM (inactive); with HCT-116, > 100 µM (inactive); in the experiment on HL-60, 49.9 µM (inactive). Further, the GI50 in the experiment on K562, in the experiment with Malme-3M, in the experiment on NCI-H460, in the experiment on OVCAR-3, with SF-539 and in the experiment on SK-MEL-5 was > 100 µM (inactive) each time. Moreover, the GI50 in the experiment on SK-OV-3 and in the experiment with TK-10 was > 100 µM (inactive) throughout.

`CCOc1cc(-c2nc3cc(F)ccc3s2)ccc1O`: the GI50 in the experiment on 786-0 is 14.4 µM (inactive); in the experiment with ACHN it was 16 µM (inactive); in the experiment with CCRF-CEM, 0.6 µM (active); in the experiment on COLO 205, 19.7 µM (inactive); with DU-145, 17.6 µM (inactive); in the experiment with HCT-116 it was 20.6 µM (inactive). Also, the GI50 is < 0.01 µM (active) in the experiment on K562; 17 µM (inactive) with KM12; 15.3 µM (inactive) in the experiment with Malme-3M; 17.3 µM (inactive) in the experiment on NCI-H460; 18.5 µM (inactive) in the experiment with OVCAR-3; 10.7 µM (inactive) with RPMI-8226. In addition, the GI50 in the experiment on SF-539 was 18.8 µM (inactive); in the experiment on SK-MEL-5, 16.6 µM (inactive); in the experiment on SK-OV-3 it was 18.7 µM (inactive); with SNB-19, 16.5 µM (inactive); in the experiment with TK-10, 18.7 µM (inactive); with UO-31, 12.9 µM (inactive).

For the compound `[O-][S+](Nc1ccccc1)c1ccc(Cl)c(Cl)c1` (stereo not given), the GI50 with 786-0 was 53.8 µM (inactive); in the experiment on ACHN, 62.5 µM (inactive); with CCRF-CEM, > 100 µM (inactive); with COLO 205 it was 69.7 µM (inactive); in the experiment on DU-145, 69.8 µM (inactive); in the experiment with HCT-116, 33.1 µM (inactive). Besides, the GI50 in the experiment on HL-60 is 36.9 µM (inactive); in the experiment on K562, 39.9 µM (inactive); in the experiment with KM12, 14.7 µM (inactive); in the experiment on Malme-3M, 56.6 µM (inactive); with NCI-H460, 31.3 µM (inactive); in the experiment on OVCAR-3, 63.2 µM (inactive). Besides, the GI50 in the experiment with RPMI-8226 is 51.6 µM (inactive); in the experiment on SF-539 it was 20.6 µM (inactive); with SK-MEL-5 it was 23.4 µM (inactive); in the experiment with SNB-19 it was 62.8 µM (inactive); in the experiment with TK-10 it was > 100 µM (inactive); in the experiment with UO-31, 52 µM (inactive).

With `CC(NC(=O)C(N)CC(=O)O)C(=O)OC12CC3CC(CC(C3)C1)C2` (stereo not given), the GI50 in the experiment with 786-0 was > 100 µM (inactive); in the experiment on ACHN it was > 100 µM (inactive); in the experiment on CCRF-CEM, > 100 µM (inactive); with COLO 205, > 100 µM (inactive); with DU-145 it was 13.4 µM (inactive); in the experiment with HCT-116 it was > 100 µM (inactive). Besides, the GI50 in the experiment on HOP-92, in the experiment on K562, in the experiment on KM12, in the experiment with NCI-H460, in the experiment on RPMI-8226 and in the experiment on SK-MEL-5 was > 100 µM (inactive) each time. The GI50 with SK-OV-3, with SNB-19, in the experiment on TK-10 and in the experiment on UO-31 was > 100 µM (inactive) throughout.

`O=C1CCCCC/C1=C\c1ccc(F)cc1`: the GI50 with 786-0 was > 100 µM (inactive); with ACHN, > 100 µM (inactive); in the experiment on CCRF-CEM, 24.4 µM (inactive); with COLO 205, > 100 µM (inactive); with DU-145 it was > 100 µM (inactive); in the experiment on HCT-116, 89.3 µM (inactive). The GI50 was 61.1 µM (inactive) in the experiment with HOP-92; > 100 µM (inactive) in the experiment with K562; > 100 µM (inactive) in the experiment with KM12; > 100 µM (inactive) with Malme-3M; 50.1 µM (inactive) in the experiment with NCI-H460; > 100 µM (inactive) in the experiment on OVCAR-3. Further, the GI50 in the experiment on RPMI-8226 is 45.2 µM (inactive); in the experiment with SK-MEL-5, 44.8 µM (inactive); with SK-OV-3, > 100 µM (inactive); with SNB-19 it was > 100 µM (inactive); with TK-10 it was 50.8 µM (inactive); in the experiment with UO-31 it was 42.4 µM (inactive).

Consider `CCC(C)C(NC(=O)C(Cc1cccs1)NC(=O)C(CC(C)C)NC(=O)C(CC(C)C)NC(=O)C(CCCCN)NC(=O)C(CCCN=C(N)N)NC(=O)[C@H](Cc1ccc(O)cc1)NC(=O)C(NC(=O)C(C)NC(=O)C(N)CC(C)C)C(C)O)C(=O)NC(CC(C)C)C(N)=O` (stereo not given in full) (H-[ξL][ξA][ξT]Y[ξR][ξK][ξL][ξL][ξ2Thi][ξI][ξL]-NH2), for which the GI50 with 786-0, with ACHN, in the experiment on CCRF-CEM, in the experiment on COLO 205, in the experiment on DU-145 and in the experiment on HCT-116 was > 50 µM (inactive) each time. The GI50 with K562, with KM12, with Malme-3M, in the experiment on NCI-H460, in the experiment on OVCAR-3 and in the experiment with RPMI-8226 was > 50 µM (inactive) in each case. Also, the GI50 with SF-539, with SK-MEL-5, in the experiment on SK-OV-3, in the experiment with SNB-19, with TK-10 and with UO-31 was > 50 µM (inactive) in each case.
